In BigSolDB 2.1:

O=C(NC[C@H]1CN(c2ccc(N3CCOCC3=O)cc2)C(=O)O1)c1ccc(Cl)s1
solubility (mole fraction)
Details | 283.15 K | 288.15 K | 293.15 K | 298.15 K | 303.15 K | 308.15 K
in dichloromethane | 0.000254 | 0.00028 | 0.000308 | 0.000338 | 0.00037 | 0.000403
in ethanol | 1.21e-05 | 1.46e-05 | 1.75e-05 | 2.09e-05 | 2.5e-05 | 2.94e-05
in methanol | 2.41e-05 | 2.97e-05 | 3.63e-05 | 4.42e-05 | 5.29e-05 | 6.36e-05
in n-butanol | 5.56e-06 | 7.84e-06 | 1.08e-05 | 1.48e-05 | 2.01e-05 | 2.73e-05
in n-propanol | 7.99e-06 | 1.05e-05 | 1.37e-05 | 1.77e-05 | 2.26e-05 | 2.88e-05
